Source: patent publication US20230414583A1, “LYSERGIC ACID DERIVATIVES WITH MODIFIED LSD-LIKE ACTION” (Mind Medicine, Inc., priority 2022, published 2023)

Key:
5-HT2A = details: cited from earlier work
LSD-trained rats = details: even at 20× of the full active dose of LSD; cited from earlier work
[1] = Microsomal assays: stability in pooled human liver microsomes, LC-MS/MS; format: in vitro ADME; details: 10 nM; for microsomal metabolism compared with LSD: incubations over 4 hours
Text: Given its fast metabolism, it is likely not active orally but is a candidate for intravenous administration in particular as an infusion and expected to then produce short-lasting or also maintained effects that can rapidly be terminated upon stopping the infusion. […] However, it is important to note that in addition to the metabolic profile, other factors such as 5-HT2A receptor activity are important to consider when choosing promising drug candidates for therapeutic applications. In addition, in vivo experiments are necessary further assessing the clinical pharmacokinetics of these substances.
Microsomal assays: The objective of this experiment was the investigation of the microsomal stability of 10 novel lysergamides (FIGS. 13A-13J) in order to make predictions about whether any of the derivatives may be clinically faster metabolized than lysergic acid diethylamide (LSD). The test substances were incubated with human liver microsomes for 4 hours and the metabolic degradation was then measured by liquid chromatography-tandem mass spectrometry (LC-MS/MS). In brief, LSD and the derivatives (10 nM) were incubated in the presence of pooled human liver microsomes for 4 hours. The microsomal reaction mixture contained 464.5 μL phosphate-buffered saline, 25 μL nicotinamide adenine dinucleotide phosphate (NADPH) solution A (1:20 dilution, #451220, lot: 0344003; Corning Life Sciences B.V) and 5 μL Solution B (1:100 dilution, #451200, lot: 0342002; Corning Life Sciences B.V), 5 μL liver microsomes (150 donors, 20 mg/mL, #452117, lot: 38296; Corning Life Sciences B.V., Amsterdam, The Netherlands), and 0.5 μL test drugs (10 μM). Samples (50 μL) were taken 2 minutes prior to microsomal incubation (t0) and 0.5, 1, 2, 3, and 4 hours after initiation of the microsomal reaction. A total of five assays were performed per substance. The amount of the test substances (peak area) exposed to human liver microsomes for 4 hours was compared relative to a concentration of 10 nM (t0, 100% peak area). Linear regression slopes were plotted to compare the degradation of the derivatives and LSD. None of the TRALA derivatives were metabolized to LSD (data not shown).

[2] = humans; psilocin: unconjugated, average; cited from earlier work
[3] = Chemical stability under basic and acidic conditions (HPLC MS); format: physicochemical
Procedure: General preparation and equipment information: NMR was performed on a Bruker NMR (^1H: 300 MHz and ^19F: 282 MHz) at ambient temperature. Reaction controls were performed by silica gel TLC (F254; UV detection) and HPLC UV & MS (Agilent 1100, UV at 210 nm and 313 nm, Waters SQD, ESI+ mode) under basic as well as acidic conditions (solvents: A: either 0.02% NH4OH in water or 0.05% TFA in water, B: acetonitrile, gradients from 5% to 95% B, reversed phase C18 HPLC column). All reactions, workups, drying steps, and storing were performed under exclusion of daylight and of electric light such as neon lighting or light bulbs containing wavelengths of the blue and/or UV spectrum. Working was performed in either light-excluding lab ware or under orange to red light (UV free LED). This helps to prevent decompositions of the compounds. Further on, reactions und some purifications can be performed under protecting gas such as Nitrogen or Argon to further protect the compounds from decompositions. Purifications were performed by using silica gel column chromatography and organic solvents such as mixtures of an alcohol (MeOH or EtOH) and dichloromethane, and in some cases, 0.1% to 1% of NH4OH 25% or 0.1% to 1% NEt3 was added. In a similar way, preparative TLC (silica gel) using the aforementioned solvents was applied as well. Working safety: a suitable personal protecting ware common to lab works and fume hoods with a movable glass window were used. Possible contaminations on e.g., gloves or surfaces can quickly be detected by having a long-wave UV lamp (e.g., 366 nm) at hands, preventing further distribution of active materials. Typically, compounds bearing an intact lysergic acid amide substructure, show a strong blueish fluorescence even in trace amounts. Quick deactivation of the potential central effects of these compounds can be performed by using, e.g., a mixture of bleach and diluted alcohol.
9,10-Didehydro-N-ethenyl-N-ethyl-6-methylergoline-8R-carboxamide (TRALA-12), 21. […]

[4] = 5R,8S epimer; cited from earlier work

For CCN(CC)C(=O)[C@@H]1C=C2c3cccc4[nH]cc(c34)C[C@H]2NC1 [6-Nor-LSD, 9,10-Didehydro-N,N-diethylergoline-8R-carboxamide], the “binding to 5-HT2A in more recent binding assays” value (5-HT2A; Luethi et al., 2019) is given as “high-potency binding to 5-HT2A”, the “loss of 5-HT2A binding affinity on N6-demethylation of LSD” value (5-HT2A; relative to LSD (Hoffmann, 1987)) is given as 30 factor and the “ability to substitute in LSD-trained rats” value (LSD-trained rats) is given as “loss of its 5-HT2A binding affinity (factor 30) and the ability to substitute in LSD-trained rats”.

With C=C(F)CN1C[C@H](C(=O)N(CC)CC)C=C2c3cccc4[nH]cc(c34)C[C@H]21 [Compound 12c, 9,10-Didehydro-N,N-diethyl-6-(2-fluoro-1-propen-3-yl)ergoline-8R-carboxamide] the “microsomal metabolism compared with LSD” value [1] was “significantly faster metabolized than LSD”.

In the case of CCN(CC)C(=O)[C@@H]1C=C2c3cccc4[nH]cc(c34)C[C@H]2N(C)C1 [LSD, 9,10-Didehydro-N,N-diethyl-6-methylergoline-8R-carboxamide], the plasma half-life [2] is given as “approximately 4 hours”.

In the case of C=CN(CC)C(=O)[C@@H]1C=C2c3cccc4[nH]cc(c34)C[C@H]2N(C)C1 [Compound 2l, 9,10-Didehydro-N-ethenyl-N-ethyl-6-methylergoline-8R-carboxamide], the “stability against basic or acidic HPLC MS conditions” value ([3]; 0.02% NH4OH in water or 0.05% TFA in water / acetonitrile) is reported as “stability against these conditions”, the “time after which the majority of substance was metabolized” value [1] is reported as 30 min and the “microsomal metabolism compared with LSD” value [1] is reported as “significantly faster metabolized than LSD”.

In the case of C#CCN(CC)C(=O)[C@@H]1C=C2c3cccc4[nH]cc(c34)C[C@H]2N(CCF)C1 [Compound 16a, 9,10-Didehydro-N-ethyl-N-propyn-3-yl-6-(2-fluoroethyl)ergoline-8R-carboxamide], the “microsomal metabolism compared with LSD” value [1] is reported as “significantly faster metabolized than LSD”.

For CCN(CC)C(=O)[C@H]1C=C2c3cccc4[nH]cc(c34)C[C@H]2N(C)C1 [iso-LSD], the psychoactivity in humans [4] is listed as “inactive up to several milligrams”.

For CCN(C=C(F)F)C(=O)[C@@H]1C=C2c3cccc4[nH]cc(c34)C[C@H]2N(C)C1 [Compound 2m, 9,10-Didehydro-N-(2,2-difluoroethenyl)-N-ethyl-6-methylergoline-8R-carboxamide], the “chemical stability, basic conditions” value ([3]; hydrolyzed sample stored at ambient temperature overnight) was “remained intact” and the “chemical stability, acidic conditions” value ([3]; hydrolyzed sample with excess tartaric acid, stored for 24h) was “the same product distribution as after initial hydrolysis of the reaction”.

For C#CCN(CC)C(=O)[C@@H]1C=C2c3cccc4[nH]cc(c34)C[C@H]2N(CC(=C)F)C1 [Compound 16b, 9,10-Didehydro-N-ethyl-N-propyn-3-yl-6-(2-fluoro-1-propen-3-yl)ergoline-8R-carboxamide], the “microsomal metabolism compared with LSD” value [1] was “significantly faster metabolized than LSD”.
